Source: ChEMBL document CHEMBL5723584 (2023)

Key:
[1] = target: Epidermal growth factor receptor (Homo sapiens) (UniProt P00533); test: activity of EGFR(h) at 1.0 µM in the Eurofins Kinase panel; conditions: Compound concentration 1.0 uM
[2] = target: CDK7/Cyclin H/MNAT1 (Homo sapiens) (UniProt P51946+P50613+P51948); test: activity of CDK7/cyclinH/MAT1(h) at 1.0 µM in the Eurofins Kinase panel; type: protein-complex assay; conditions: Compound concentration 1.0 uM
[3] = target: Serine/threonine-protein kinase Nek1 (Homo sapiens) (UniProt Q96PY6); test: activity of NEK1(h) at 1.0 µM in the Eurofins Kinase panel; conditions: Compound concentration 1.0 uM
[4] = target: RAC-gamma serine/threonine-protein kinase (Homo sapiens) (UniProt Q9Y243); test: activity of PKBgamma(h) at 1.0 µM in the Eurofins Kinase panel; conditions: Compound concentration 1.0 uM
[5] = target: Tyrosine-protein kinase HCK (Homo sapiens) (UniProt P08631); test: activity of Hck(h) at 1.0 µM in the Eurofins Kinase panel; conditions: Compound concentration 1.0 uM
[6] = target: Tyrosine-protein kinase Fer (Homo sapiens) (UniProt P16591); test: activity of Fer(h) at 1.0 µM in the Eurofins Kinase panel; conditions: Compound concentration 1.0 uM
[7] = target: Transient receptor potential cation channel subfamily M member 7 (Homo sapiens) (UniProt Q96QT4); test: activity of ChaK1(h) at 1.0 µM in the Eurofins Kinase panel; conditions: Compound concentration 1.0 uM
[8] = target: Dual specificity mitogen-activated protein kinase kinase 6 (Homo sapiens) (UniProt P52564); test: activity of MKK6(h) at 1.0 µM in the Eurofins Kinase panel; conditions: Compound concentration 1.0 uM
[9] = organism: Homo sapiens; test: activity of MAPK2(h) at 1.0 µM in the Eurofins Kinase panel; conditions: Compound concentration 1.0 uM
[10] = target: Protein kinase C theta type (Homo sapiens) (UniProt Q04759); test: activity of PKCtheta(h) at 1.0 µM in the Eurofins Kinase panel; conditions: Compound concentration 1.0 uM
[11] = target: Protein kinase C gamma type (Homo sapiens) (UniProt P05129); test: activity of PKCgamma(h) at 1.0 µM in the Eurofins Kinase panel; conditions: Compound concentration 1.0 uM
[12] = target: Testis-specific serine/threonine-protein kinase 4 (Homo sapiens) (UniProt Q6SA08); test: activity of TSSK4(h) at 1.0 µM in the Eurofins Kinase panel; conditions: Compound concentration 1.0 uM
Testis-specific serine/threonine-protein kinase 4 (Homo sapiens), sequence (Q6SA08 whole entry): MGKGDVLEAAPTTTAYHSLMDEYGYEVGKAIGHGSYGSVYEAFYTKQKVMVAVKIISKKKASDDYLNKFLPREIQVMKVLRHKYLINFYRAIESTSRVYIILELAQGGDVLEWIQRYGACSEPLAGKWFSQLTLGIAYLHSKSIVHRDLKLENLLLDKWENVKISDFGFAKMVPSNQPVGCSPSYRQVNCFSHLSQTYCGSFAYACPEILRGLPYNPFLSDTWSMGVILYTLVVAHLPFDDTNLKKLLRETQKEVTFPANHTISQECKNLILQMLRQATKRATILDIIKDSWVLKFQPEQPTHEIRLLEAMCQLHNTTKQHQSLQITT

[13] = target: Ribosomal protein S6 kinase alpha-5 (Homo sapiens) (UniProt O75582); test: activity of MSK1(h) at 1.0 µM in the Eurofins Kinase panel; conditions: Compound concentration 1.0 uM
[14] = target: Serine/threonine-protein kinase MAK (Homo sapiens) (UniProt P20794); test: activity of MAK(h) at 1.0 µM in the Eurofins Kinase panel; conditions: Compound concentration 1.0 uM
Serine/threonine-protein kinase MAK (Homo sapiens), sequence (P20794 whole entry): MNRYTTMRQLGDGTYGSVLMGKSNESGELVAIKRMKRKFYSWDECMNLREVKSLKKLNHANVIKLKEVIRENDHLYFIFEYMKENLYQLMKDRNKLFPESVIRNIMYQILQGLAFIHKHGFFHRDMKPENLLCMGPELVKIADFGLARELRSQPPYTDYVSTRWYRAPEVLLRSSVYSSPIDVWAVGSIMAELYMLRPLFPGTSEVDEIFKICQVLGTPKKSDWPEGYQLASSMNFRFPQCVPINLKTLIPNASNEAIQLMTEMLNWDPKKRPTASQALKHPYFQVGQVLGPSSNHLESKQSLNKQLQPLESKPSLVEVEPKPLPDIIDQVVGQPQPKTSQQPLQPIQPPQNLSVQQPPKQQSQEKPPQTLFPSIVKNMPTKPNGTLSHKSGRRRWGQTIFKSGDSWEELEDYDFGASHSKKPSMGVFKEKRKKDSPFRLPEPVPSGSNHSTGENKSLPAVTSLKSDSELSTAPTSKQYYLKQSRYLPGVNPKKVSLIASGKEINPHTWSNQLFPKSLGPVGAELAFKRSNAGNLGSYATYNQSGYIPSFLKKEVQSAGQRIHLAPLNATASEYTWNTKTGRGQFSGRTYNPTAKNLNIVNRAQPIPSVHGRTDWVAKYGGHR

[15] = target: Activin receptor type-1-like (Homo sapiens) (UniProt P37023); test: activity of ALK1(h) at 1.0 µM in the Eurofins Kinase panel; conditions: Compound concentration 1.0 uM
[16] = target: Vascular endothelial growth factor receptor 2 (Homo sapiens) (UniProt P35968); test: activity of KDR(h) at 1.0 µM in the Eurofins Kinase panel; conditions: Compound concentration 1.0 uM
[17] = target: Serine/threonine-protein kinase D3 (Homo sapiens) (UniProt O94806); test: activity of PKD3(h) at 1.0 µM in the Eurofins Kinase panel; conditions: Compound concentration 1.0 uM
[18] = target: TGF-beta receptor type-1 (Homo sapiens) (UniProt P36897); test: activity of TGFBR1(h) at 1.0 µM in the Eurofins Kinase panel; conditions: Compound concentration 1.0 uM
[19] = target: AP2-associated protein kinase 1 (Homo sapiens, UniProt Q2M2I8); test: Promega NanoBRET (AAK1)
[20] = target: Cyclin-dependent kinase 13/Cyclin-K (Homo sapiens) (UniProt Q14004+O75909); test: activity of CDK13/cyclinK(h) at 1.0 µM in the Eurofins Kinase panel; type: protein-complex assay; conditions: Compound concentration 1.0 uM
[21] = target: CDK12/Cyclin K (Homo sapiens) (UniProt O75909+Q9NYV4); test: activity of CDK12/cyclinK(h) at 1.0 µM in the Eurofins Kinase panel; type: protein-complex assay; conditions: Compound concentration 1.0 uM
[22] = target: CDK9/cyclin T1 (Homo sapiens) (UniProt O60563+P50750); test: activity of CDK9/cyclin T1(h) at 1.0 µM in the Eurofins Kinase panel; type: protein-complex assay; conditions: Compound concentration 1.0 uM
[23] = target: Serine/threonine-protein kinase 32C (Homo sapiens) (UniProt Q86UX6); test: activity of STK32C(h) at 1.0 µM in the Eurofins Kinase panel; conditions: Compound concentration 1.0 uM
[24] = target: Muscle, skeletal receptor tyrosine-protein kinase (Homo sapiens) (UniProt O15146); test: activity of MuSK(h) at 1.0 µM in the Eurofins Kinase panel; conditions: Compound concentration 1.0 uM
[25] = target: Mast/stem cell growth factor receptor Kit (Homo sapiens) (UniProt P10721); test: activity of cKit(h) at 1.0 µM in the Eurofins Kinase panel; conditions: Compound concentration 1.0 uM
[26] = target: Casein kinase I isoform delta (Homo sapiens) (UniProt P48730); test: activity of CK1delta(h) at 1.0 µM in the Eurofins Kinase panel; conditions: Compound concentration 1.0 uM
Casein kinase I isoform delta (Homo sapiens), sequence (P48730 whole entry, looked up, canonical isoform): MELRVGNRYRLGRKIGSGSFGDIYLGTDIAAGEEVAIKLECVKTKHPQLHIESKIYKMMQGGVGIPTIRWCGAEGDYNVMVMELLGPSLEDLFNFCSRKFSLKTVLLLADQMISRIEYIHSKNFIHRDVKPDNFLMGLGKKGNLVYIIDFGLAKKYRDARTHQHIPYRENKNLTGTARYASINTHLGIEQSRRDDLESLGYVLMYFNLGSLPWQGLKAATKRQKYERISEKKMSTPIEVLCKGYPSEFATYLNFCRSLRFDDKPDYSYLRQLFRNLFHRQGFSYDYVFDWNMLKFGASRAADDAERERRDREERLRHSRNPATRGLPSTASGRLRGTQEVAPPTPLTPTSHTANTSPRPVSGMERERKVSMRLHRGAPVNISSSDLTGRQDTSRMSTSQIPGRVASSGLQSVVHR

[27] = target: Dual specificity mitogen-activated protein kinase kinase 3 (Homo sapiens) (UniProt P46734); test: activity of MKK3(h) at 1.0 µM in the Eurofins Kinase panel; conditions: Compound concentration 1.0 uM
[28] = target: Mitogen-activated protein kinase 8 (Homo sapiens) (UniProt P45983); test: activity of JNK1alpha1(h) at 1.0 µM in the Eurofins Kinase panel; conditions: Compound concentration 1.0 uM
[29] = target: Serine/threonine-protein kinase WNK1 (Homo sapiens) (UniProt Q9H4A3); test: activity of WNK1(h) at 1.0 µM in the Eurofins Kinase panel; conditions: Compound concentration 1.0 uM
Serine/threonine-protein kinase WNK1 (Homo sapiens), sequence (Q9H4A3 whole entry, looked up): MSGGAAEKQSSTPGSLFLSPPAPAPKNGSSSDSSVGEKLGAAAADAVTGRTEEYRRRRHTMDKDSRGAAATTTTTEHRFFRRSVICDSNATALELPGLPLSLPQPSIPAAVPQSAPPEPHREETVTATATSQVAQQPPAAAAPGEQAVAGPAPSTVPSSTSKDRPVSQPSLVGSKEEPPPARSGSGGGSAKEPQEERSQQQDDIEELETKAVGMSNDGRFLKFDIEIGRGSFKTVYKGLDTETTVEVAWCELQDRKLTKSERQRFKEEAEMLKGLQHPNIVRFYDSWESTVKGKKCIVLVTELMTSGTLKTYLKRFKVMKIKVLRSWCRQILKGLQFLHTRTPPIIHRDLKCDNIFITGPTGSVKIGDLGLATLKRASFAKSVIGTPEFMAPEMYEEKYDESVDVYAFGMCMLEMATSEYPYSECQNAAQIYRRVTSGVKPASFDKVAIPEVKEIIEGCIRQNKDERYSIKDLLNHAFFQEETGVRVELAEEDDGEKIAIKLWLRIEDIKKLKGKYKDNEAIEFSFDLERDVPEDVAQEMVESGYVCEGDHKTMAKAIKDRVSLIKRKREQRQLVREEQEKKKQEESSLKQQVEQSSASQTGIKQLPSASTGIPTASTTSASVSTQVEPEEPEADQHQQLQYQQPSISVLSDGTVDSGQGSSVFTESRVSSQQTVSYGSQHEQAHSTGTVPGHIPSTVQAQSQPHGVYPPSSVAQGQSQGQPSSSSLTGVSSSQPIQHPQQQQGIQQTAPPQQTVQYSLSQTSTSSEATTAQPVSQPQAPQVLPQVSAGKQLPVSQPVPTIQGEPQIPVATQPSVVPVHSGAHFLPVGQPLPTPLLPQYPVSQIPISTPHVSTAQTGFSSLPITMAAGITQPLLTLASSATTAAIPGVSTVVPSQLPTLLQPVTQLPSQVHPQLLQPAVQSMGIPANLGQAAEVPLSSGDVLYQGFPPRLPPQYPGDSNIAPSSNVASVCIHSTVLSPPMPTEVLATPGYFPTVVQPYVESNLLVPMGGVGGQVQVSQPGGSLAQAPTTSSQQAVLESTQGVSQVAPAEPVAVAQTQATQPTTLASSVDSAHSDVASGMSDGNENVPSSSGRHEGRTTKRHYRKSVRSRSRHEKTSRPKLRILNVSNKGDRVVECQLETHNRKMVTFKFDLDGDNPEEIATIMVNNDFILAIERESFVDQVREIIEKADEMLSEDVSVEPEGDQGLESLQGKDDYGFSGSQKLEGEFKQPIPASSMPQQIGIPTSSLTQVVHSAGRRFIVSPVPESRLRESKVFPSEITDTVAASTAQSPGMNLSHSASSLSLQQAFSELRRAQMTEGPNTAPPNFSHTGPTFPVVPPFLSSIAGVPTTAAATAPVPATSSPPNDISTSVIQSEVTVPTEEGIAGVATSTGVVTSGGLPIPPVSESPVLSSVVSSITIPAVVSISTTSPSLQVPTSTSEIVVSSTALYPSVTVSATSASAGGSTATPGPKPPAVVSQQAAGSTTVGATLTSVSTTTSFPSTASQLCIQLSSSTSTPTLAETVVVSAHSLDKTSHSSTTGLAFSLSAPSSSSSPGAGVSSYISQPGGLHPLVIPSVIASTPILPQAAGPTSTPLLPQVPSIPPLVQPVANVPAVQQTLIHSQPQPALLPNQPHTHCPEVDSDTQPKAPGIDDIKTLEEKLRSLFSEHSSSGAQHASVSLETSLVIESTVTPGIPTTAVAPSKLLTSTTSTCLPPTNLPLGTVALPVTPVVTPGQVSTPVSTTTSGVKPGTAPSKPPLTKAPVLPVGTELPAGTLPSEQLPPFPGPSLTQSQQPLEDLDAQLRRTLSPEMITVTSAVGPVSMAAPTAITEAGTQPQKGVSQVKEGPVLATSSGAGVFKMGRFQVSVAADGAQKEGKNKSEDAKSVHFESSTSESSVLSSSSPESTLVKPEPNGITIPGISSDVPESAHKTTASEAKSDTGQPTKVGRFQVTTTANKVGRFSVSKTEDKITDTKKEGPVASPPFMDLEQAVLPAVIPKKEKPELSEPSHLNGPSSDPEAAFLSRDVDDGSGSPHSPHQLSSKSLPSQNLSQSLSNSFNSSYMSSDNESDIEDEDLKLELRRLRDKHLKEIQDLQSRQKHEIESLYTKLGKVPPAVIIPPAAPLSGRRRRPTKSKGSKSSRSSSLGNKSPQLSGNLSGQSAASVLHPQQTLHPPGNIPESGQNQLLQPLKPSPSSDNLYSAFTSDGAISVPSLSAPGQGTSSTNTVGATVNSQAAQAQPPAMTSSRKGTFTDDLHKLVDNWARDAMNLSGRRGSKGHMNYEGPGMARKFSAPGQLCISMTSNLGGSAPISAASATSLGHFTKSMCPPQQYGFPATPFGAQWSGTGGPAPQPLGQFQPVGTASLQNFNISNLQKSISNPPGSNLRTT

[30] = target: Serine/threonine-protein kinase ULK1 (Homo sapiens) (UniProt O75385); test: activity of ULK1(h) at 1.0 µM in the Eurofins Kinase panel; conditions: Compound concentration 1.0 uM
[31] = target: cAMP-dependent protein kinase catalytic subunit beta (Homo sapiens) (UniProt P22694); test: activity of PKACbeta(h) at 1.0 µM in the Eurofins Kinase panel; conditions: Compound concentration 1.0 uM
[32] = target: Ephrin type-A receptor 3 (Homo sapiens) (UniProt P29320); test: activity of EphA3(h) at 1.0 µM in the Eurofins Kinase panel; conditions: Compound concentration 1.0 uM
[33] = target: Maternal embryonic leucine zipper kinase (Homo sapiens) (UniProt Q14680); test: activity of MELK(h) at 1.0 µM in the Eurofins Kinase panel; conditions: Compound concentration 1.0 uM
[34] = target: Dual specificity mitogen-activated protein kinase kinase 2 (Homo sapiens) (UniProt P36507); test: activity of MEK2(h) at 1.0 µM in the Eurofins Kinase panel; conditions: Compound concentration 1.0 uM
[35] = target: Mitogen-activated protein kinase kinase kinase kinase 2 (Homo sapiens) (UniProt Q12851); test: activity of GCK(h) at 1.0 µM in the Eurofins Kinase panel; conditions: Compound concentration 1.0 uM
[36] = target: Receptor-interacting serine/threonine-protein kinase 1 (Homo sapiens) (UniProt Q13546); test: activity of RIPK1(h) at 1.0 µM in the Eurofins Kinase panel; conditions: Compound concentration 1.0 uM
Receptor-interacting serine/threonine-protein kinase 1 (Homo sapiens), sequence (Q13546 whole entry): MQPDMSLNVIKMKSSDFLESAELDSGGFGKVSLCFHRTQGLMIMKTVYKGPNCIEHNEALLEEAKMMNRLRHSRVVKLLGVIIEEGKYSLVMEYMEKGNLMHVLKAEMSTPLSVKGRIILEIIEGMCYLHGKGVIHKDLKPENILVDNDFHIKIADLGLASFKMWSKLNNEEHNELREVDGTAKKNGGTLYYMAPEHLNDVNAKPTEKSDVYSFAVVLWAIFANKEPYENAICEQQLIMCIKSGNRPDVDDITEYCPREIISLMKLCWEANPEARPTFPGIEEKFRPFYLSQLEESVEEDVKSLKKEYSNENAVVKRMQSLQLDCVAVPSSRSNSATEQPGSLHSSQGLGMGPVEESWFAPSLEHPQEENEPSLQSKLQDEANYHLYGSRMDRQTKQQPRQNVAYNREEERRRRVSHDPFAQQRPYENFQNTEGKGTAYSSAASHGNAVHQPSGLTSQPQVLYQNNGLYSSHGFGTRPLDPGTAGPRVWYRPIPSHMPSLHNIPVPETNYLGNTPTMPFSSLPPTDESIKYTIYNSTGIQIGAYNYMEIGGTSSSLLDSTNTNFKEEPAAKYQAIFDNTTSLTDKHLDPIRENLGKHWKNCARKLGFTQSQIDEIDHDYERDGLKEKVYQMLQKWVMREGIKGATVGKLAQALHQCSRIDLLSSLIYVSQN

[37] = target: Casein kinase 2 (Homo sapiens) (UniProt P67870+P68400+P19784+Q8NEV1); test: activity of CK2(h) at 1.0 µM in the Eurofins Kinase panel; type: protein assay; conditions: Compound concentration 1.0 uM
[38] = target: Serine/threonine-protein kinase DCLK3 (Homo sapiens) (UniProt Q9C098); test: activity of DCAMKL3(h) at 1.0 µM in the Eurofins Kinase panel; conditions: Compound concentration 1.0 uM
[39] = target: Serine/threonine-protein kinase PAK 6 (Homo sapiens) (UniProt Q9NQU5); test: activity of PAK6(h) at 1.0 µM in the Eurofins Kinase panel; conditions: Compound concentration 1.0 uM
Serine/threonine-protein kinase PAK 6 (Homo sapiens), sequence (Q9NQU5 whole entry, looked up): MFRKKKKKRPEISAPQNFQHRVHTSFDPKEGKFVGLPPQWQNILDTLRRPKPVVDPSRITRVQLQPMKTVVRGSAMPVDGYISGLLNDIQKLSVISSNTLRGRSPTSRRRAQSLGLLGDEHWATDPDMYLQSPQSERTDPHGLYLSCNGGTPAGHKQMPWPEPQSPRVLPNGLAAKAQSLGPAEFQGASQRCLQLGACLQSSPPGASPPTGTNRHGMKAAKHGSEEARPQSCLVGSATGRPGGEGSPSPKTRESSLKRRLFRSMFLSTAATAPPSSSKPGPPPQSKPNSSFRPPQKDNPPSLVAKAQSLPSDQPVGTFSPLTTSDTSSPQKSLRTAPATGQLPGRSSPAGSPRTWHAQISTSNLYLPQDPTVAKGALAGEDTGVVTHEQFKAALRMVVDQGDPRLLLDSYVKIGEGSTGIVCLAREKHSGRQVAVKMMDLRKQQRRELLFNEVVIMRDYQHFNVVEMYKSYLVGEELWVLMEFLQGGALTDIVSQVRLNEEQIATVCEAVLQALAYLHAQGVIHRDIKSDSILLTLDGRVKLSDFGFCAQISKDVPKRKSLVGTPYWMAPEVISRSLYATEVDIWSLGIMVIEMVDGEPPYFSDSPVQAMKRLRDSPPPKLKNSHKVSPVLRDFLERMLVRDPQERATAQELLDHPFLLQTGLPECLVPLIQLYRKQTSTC

Work on `Cc1cc2c(-c3ccc(NC(=O)[C@H](N)CC(C)(C)C)cc3C)ccnc2[nH]1` yielded an activity [1] of 107%, an activity [2] of 95% and an activity [3] of 94%. It also gave an activity [4] of 101%, an activity [5] of 99% and an activity [6] of 103%. The activity [7] was 106%, the activity [8] was 101% and the activity [9] was 109%. The activity [10] was 103%, the activity [11] was 97% and the activity [12] was 117%. It also gave an activity [13] of 111%, an activity [14] of 120% and an activity [15] of 94%. It also gave an activity [16] of 78%, an activity [17] of 97% and an activity [18] of 103%. For the same compound, the IC50 [19] was 6.2 µM (not active), the activity [20] was 99% and the activity [21] was 89%. The activity [22] was 81%, the activity [23] was 85% and the activity [24] was 96%. For the same compound, the activity [25] was 85%, the activity [26] was 96% and the activity [27] was 97%. For the same compound, the activity [28] was 110%, the activity [29] was 109% and the activity [30] was 95%. For the same compound, the activity [31] was 121%, the activity [32] was 79% and the activity [33] was 82%. It also gave an activity [34] of 92%, an activity [35] of 118% and an activity [36] of 84%. It also gave an activity [37] of 112%, an activity [38] of 86% and an activity [39] of 101%.
